Experimental data as given in patent publication US8119656B2, “Inhibitors of the influenza virus non-structural 1 protein” (The Board of Regents of the University of Texas System, priority 2007, dated 2012).

What was measured:
influenza virus (WSN) = format: cell-based
influenza virus = experiment: Inhibition of virus killing in human bronchial epithelial cells (infection assay); format: cell-based; conditions: purity and concentration verified
Text: FIG. 7. […] Analogs in the library are related structures which provide structure-activity information. The z score is the compound value minus the experimental mean value divided by the standard deviation of the experimental population.
It is important to note, that with the exception of one compound (8 in FIG. 7), the values shown are from the screening experiments using compounds for which only estimated concentrations and solubilities were available. Inhibitor 8 has been purchased in large quantities from Chemical Diversity Laboratories (San Diego, Calif.) and its purity and concentration verified prior to obtaining the data on inhibition of virus killing in human bronchial epithelial cells. […] It is possible that some of the other compounds will show improvements in potency once pure stocks of known concentration are obtained (see FIG. 7). […] From these 71 inhibitors, 8 different compound families were chosen for further analyses (see FIG. 7).

NS1 protein = molecular target: T1, NS1 protein (Influenza A virus, UniProt P03496); format: cell-based
T1 construct: expressed in transfected cells; host or cells: 293T cells
T1 sequence (P03496 whole entry): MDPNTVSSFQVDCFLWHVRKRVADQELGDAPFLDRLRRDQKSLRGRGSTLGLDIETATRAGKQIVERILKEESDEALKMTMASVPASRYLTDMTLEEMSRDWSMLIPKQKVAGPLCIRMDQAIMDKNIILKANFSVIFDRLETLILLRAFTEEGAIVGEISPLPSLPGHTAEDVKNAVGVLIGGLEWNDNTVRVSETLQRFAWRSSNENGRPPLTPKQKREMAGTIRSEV

firefly luciferase = format: cell-based
[1] = system: mRNA export block induced by influenza virus infection and mediated by NS1; format: cell-based, influenza virus (WSN)

SMILES: O=C(O)CCCN1C(=O)c2cccc3c([N+](=O)[O-])ccc(c23)C1=O [Compound 8.0]
- WSN HA titer 24H 24 hr (influenza virus (WSN)): 0.50
- WSN HA titer 24H 36 hr (influenza virus (WSN)): 0.50
- Potency in the infection assay (influenza virus): most potent in the infection assay
- Activity in the original screen (NS1 protein): not one of the most active compounds

SMILES: O=C(O)CCCCCN1C(=O)c2cccc3cccc(c23)C1=O [Compound 8.1]
- WSN HA titer 24H 24 hr (influenza virus (WSN)): 1.00
- WSN HA titer 24H 36 hr (influenza virus (WSN)): 0.50

SMILES: O=C(O)CCN1C(=O)c2cccc3c([N+](=O)[O-])ccc(c23)C1=O [Compound 8.2]
- WSN HA titer 24H 24 hr (influenza virus (WSN)): 0.25
- WSN HA titer 24H 36 hr (influenza virus (WSN)): 0.50

SMILES: O=C(O)CCCCCN1C(=O)c2cccc3c(N4CCCCC4)ccc(c23)C1=O [Compound 8.3]
- Inhibition of Renilla luciferase expression (Renilla luciferase): no effect
- Inhibition of firefly luciferase expression (firefly luciferase): inhibitor of firefly luciferase expression
- Inhibition of virus growth compared with compound 8 (influenza virus (WSN)): more inhibitory of virus growth
- Potency for inhibiting virus growth among analogs of compound 8 (influenza virus (WSN)): most potent compound for inhibiting virus growth
- WSN HA titer 24H 24 hr (influenza virus (WSN)): 0.13
- WSN HA titer 24H 36 hr (influenza virus (WSN)): 0.13
- Inhibition of NS1 protein compared with compound 8 (NS1 protein): more inhibitory of NS1 protein
- Score in the luciferase dependent assay (NS1 protein): did not score
- Reversal of mRNA export block ([1]; MDCK cells infected with WSN, FIG. 10 (10 μM, MOI 0.01, 48 h in FIG. 10A)): significantly reverts the mRNA export block
- Reversal of mRNA export blockage ([1]; compound at 50 μM, WSN MOI 1, 12 h (FIG. 10B)): significant reversal of mRNA export blockage

SMILES: CCN1C(=O)c2cccc3c([N+](=O)[O-])ccc(c23)C1=O [Compound 8.6]
- Inhibition of virus growth compared with compound 8 (influenza virus (WSN)): more inhibitory of virus growth
- WSN HA titer 24H 24 hr (influenza virus (WSN)): 0.13
- WSN HA titer 24H 36 hr (influenza virus (WSN)): 0.25
- Inhibition of NS1 protein compared with compound 8 (NS1 protein): more inhibitory of NS1 protein

SMILES: O=C(O)CCCN1C(=O)c2cccc3cc([N+](=O)[O-])cc(c23)C1=O [Compound 8.9]
- WSN HA titer 24H 24 hr (influenza virus (WSN)): 0.50
- WSN HA titer 24H 36 hr (influenza virus (WSN)): 0.50

SMILES: O=C(O)CCCCCN1C(=O)c2cccc3c([N+](=O)[O-])ccc(c23)C1=O [Compound 8.10]
- WSN HA titer 24H 24 hr (influenza virus (WSN)): 0.13
- WSN HA titer 24H 36 hr (influenza virus (WSN)): 0.19

SMILES: O=C(O)CCN1C(=O)c2cccc3cccc(c23)C1=O [Compound 8.16]
- WSN HA titer 24H 24 hr (influenza virus (WSN)): 1.00
- WSN HA titer 24H 36 hr (influenza virus (WSN)): 0.50
